Some test systems named below: ACHN renal; NCI-H460 lung; RPMI-8226 leukemia; SNB-19 CNS; SNB-75 CNS; CAKI-1 renal; M14 melanoma; HOP-92 NSCLC; HL-60(TB) leukemia.
What all share (experiment): growth of human tumour cells (NCI), 48 h

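Exposure lasted 48 hours, with cells grown in 96-well plates and compounds tested at five concentrations. GI50 = concentration required for 50% inhibition of growth. TGI marks complete inhibition of growth.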 Bounds are passed on as bounds.

With `COc1cc(NCCC2CCCCN2)c2ncccc2c1OC` (stereo not given), the GI50 is 21.2 µM with ACHN renal; 10.5 µM in the assay with NCI-H460 lung; 10.1 µM in the assay with RPMI-8226 leukemia; 18.7 µM with SNB-19 CNS; 3.85 µM in the assay on SNB-75 CNS; 9.56 µM in the assay with CAKI-1 renal. The GI50 in the assay with M14 melanoma is 16.5 µM. Further, the TGI in the assay on ACHN renal was found to be 89.9 µM; with NCI-H460 lung it was 24.8 µM; in the assay on RPMI-8226 leukemia it was 50.8 µM; in the assay on SNB-19 CNS, 42.3 µM; in the assay on SNB-75 CNS, 19.5 µM; with CAKI-1 renal it was 30.2 µM. For the same compound, the TGI in the assay on M14 melanoma was 36.3 µM.

For `CCc1ccccc1NC(=O)C(=O)C(C#N)c1c(Cl)cccc1Cl` (stereo not given), the TGI in the assay on ACHN renal, in the assay with RPMI-8226 leukemia, with HOP-92 NSCLC, in the assay with HL-60(TB) leukemia, in the assay with SNB-19 CNS and with SNB-75 CNS was more than 100 µM in each case. Besides, the TGI in the assay on CAKI-1 renal and in the assay with M14 melanoma was more than 100 µM throughout.

On to `O=C(O)CCSC(=O)Nc1ccccc1`, for which the TGI in the assay with ACHN renal, with NCI-H460 lung, in the assay with RPMI-8226 leukemia, in the assay with HL-60(TB) leukemia, with SNB-19 CNS and with CAKI-1 renal was more than 100 µM each time. The compound also showed a TGI in the assay on M14 melanoma of more than 100 µM.

As for `O=C1CCc2ccc(O)c(c2)Oc2ccc(cc2)[C@@H]2O[C@@H]2CO1`, the TGI was more than 100 µM in the assay with ACHN renal; more than 100 µM with RPMI-8226 leukemia; 88.2 µM with HOP-92 NSCLC; more than 100 µM in the assay with HL-60(TB) leukemia; more than 100 µM in the assay on SNB-19 CNS; more than 100 µM with SNB-75 CNS. Also, the TGI with CAKI-1 renal and with M14 melanoma was more than 100 µM throughout.

`Cc1ccc(NC(=O)CCC(=O)C2Cc3ccccc3C2=O)cc1C` (stereo not given): the TGI with ACHN renal, in the assay with NCI-H460 lung, with RPMI-8226 leukemia, with HOP-92 NSCLC, in the assay on HL-60(TB) leukemia and in the assay on SNB-19 CNS was more than 100 µM throughout. Moreover, the TGI in the assay with SNB-75 CNS, in the assay with CAKI-1 renal and in the assay with M14 melanoma was more than 100 µM in each case.

`C=CCC1C(=O)CC2(C)C(CC=C)C(=O)CC12C` (stereo not given): the TGI with ACHN renal, in the assay on NCI-H460 lung, in the assay on RPMI-8226 leukemia, in the assay with HOP-92 NSCLC, with HL-60(TB) leukemia and in the assay with SNB-19 CNS was more than 100 µM in each case. Also, the TGI in the assay with SNB-75 CNS, in the assay on CAKI-1 renal and with M14 melanoma was more than 100 µM throughout.

For `O=C(OCc1ccccc1)n1cccc1`, the TGI in the assay on ACHN renal, in the assay on NCI-H460 lung, in the assay on RPMI-8226 leukemia, in the assay on HOP-92 NSCLC, in the assay with HL-60(TB) leukemia and with SNB-19 CNS was more than 100 µM each time. For the same compound, the TGI with SNB-75 CNS, in the assay with CAKI-1 renal and in the assay on M14 melanoma was more than 100 µM each time.

On to `N#CC1=C(c2ccccc2)OC2(N)OC(c3ccccc3)=C(C#N)C12C#N` (stereo not given), for which the TGI in the assay with ACHN renal, with NCI-H460 lung, with RPMI-8226 leukemia, in the assay with SNB-19 CNS, in the assay on SNB-75 CNS and in the assay with CAKI-1 renal was more than 100 µM throughout. This compound also returned a TGI in the assay on M14 melanoma of more than 100 µM.

`CC(=O)[CH-]C(=O)c1ccccc1.CC(=O)[CH-]C(=O)c1ccccc1.CC(=O)[CH-]C(=O)c1ccccc1.[Br-].[Zr+4]`: the GI50 was 54.3 µM in the assay with ACHN renal; 78.3 µM in the assay with NCI-H460 lung; 72.5 µM with RPMI-8226 leukemia; 18.6 µM in the assay with HOP-92 NSCLC; 52.7 µM with HL-60(TB) leukemia; 34 µM in the assay with SNB-75 CNS. The GI50 is 37.2 µM with CAKI-1 renal and 45 µM in the assay with M14 melanoma. For the same compound, the TGI is more than 100 µM with ACHN renal; more than 100 µM in the assay with NCI-H460 lung; more than 100 µM in the assay with RPMI-8226 leukemia; 61.4 µM with HOP-92 NSCLC; more than 100 µM with HL-60(TB) leukemia; more than 100 µM in the assay on SNB-75 CNS. Moreover, the TGI in the assay on CAKI-1 renal and with M14 melanoma was more than 100 µM in each case.

Take `CSc1cc(C(C)(C)C)ccc1C(O)c1ccc(C(C)(C)C)cc1SC`: the TGI worked out at 23.6 µM with ACHN renal; 31.4 µM in the assay on NCI-H460 lung; 28.9 µM in the assay with HOP-92 NSCLC; 21.2 µM with HL-60(TB) leukemia; 34.3 µM in the assay with SNB-19 CNS; 32.3 µM in the assay with SNB-75 CNS. For the same compound, the values for the TGI in the assay with CAKI-1 renal and with M14 melanoma were 24.9 µM and 26.9 µM, respectively.

For `CC(C)(C)OC1=C(OC(C)(C)C)C(O)(c2ccc(Cl)cc2)C1=O` (stereo not given), the TGI with ACHN renal, in the assay on NCI-H460 lung, with RPMI-8226 leukemia, in the assay with HL-60(TB) leukemia, with SNB-19 CNS and in the assay with SNB-75 CNS was more than 100 µM each time. Further, the TGI with M14 melanoma was more than 100 µM.

With `N#CC(C#N)=C1CCC2C(=C(C#N)C#N)CCC12` (stereo not given), the TGI in the assay with NCI-H460 lung, in the assay on RPMI-8226 leukemia, in the assay with HOP-92 NSCLC, in the assay on HL-60(TB) leukemia, with SNB-19 CNS and in the assay on SNB-75 CNS was more than 100 µM in each case. Further, the TGI with CAKI-1 renal and in the assay on M14 melanoma was more than 100 µM throughout.

The record behind these values is PubChem BioAssay (NCI).
